Assay [1] deals with adhesive cell in peripheral blood mononuclear cells collected from an asthmatic patient. The experiment in a line: Morphology and adhesive cells of peripheral blood mononuclear cells from an asthmatic patient after culture in steroid-containing medium. The assay is classed as cell-based, human. The settings on record: 10 μM steroid, 0.1 v/v % DMSO, 10 v/v % FBS RPMI1640, 37° C., 24 hours; asthmatic patient PBMC; FIG. 10. As for the experimental part:
Using 10 mL of peripheral blood collected from an asthmatic patient and 15 mL of a human lymphocyte-separation medium (manufactured by GE Healthcare, trade name: Ficoll-Paque PLUS), peripheral blood mononuclear cells were separated from the peripheral blood, according to a density gradient centrifugation method. Some of the separated peripheral blood mononuclear cells were cultured in a steroid-containing medium (RPMI1640 medium containing 10 μM hydrocortisone or 10 μM dexamethasone, 0.1 v/v % DMSO and 10 v/v % FBS) or a control medium (RPMI1640 medium containing 0.1 v/v % DMSO and 10 v/v % FBS) in a culture vessel at 37° C. for 24 hours. The morphology and state of the obtained cell were observed by an inverted phase contrast microscope (manufactured by Leica Microsystems, trade name: DM IL LED). […]

In assay [2] the test system is primary cilium of immune cell (peripheral blood mononuclear cells from an asthmatic patient). The experiment in a line: Formation rate of primary cilium in immune cell after culture in steroid-containing medium. The assay is classed as cell-based, human. To be noted: 10 μM steroid, 37° C., 24 hours; nonadherent cells from asthmatic patient PBMC; FIG. 11. As for the experimental part: Using 10 mL of peripheral blood collected from an asthmatic patient and 15 mL of a human lymphocyte-separation medium (manufactured by GE Healthcare, trade name: Ficoll-Paque PLUS), peripheral blood mononuclear cells were separated from the peripheral blood, according to a density gradient centrifugation method. Some of the separated peripheral blood mononuclear cells were fixed with 4 v/v % PFA-containing PBS solution. The fixed cells were blocked and permeabilized by incubating the cells in a blocking/permeabilizing agent, to give a sample containing uncultured cells.
Some of the separated peripheral blood mononuclear cells were cultured in a steroid-containing medium (RPMI1640 medium containing 10 μM hydrocortisone or 10 μM dexamethasone, 0.1 v/v % DMSO and 10 v/v % FBS) at 37° C. for 24 hours. Then, nonadherent cells suspended in each medium were collected. Immediately after collection, each of the collected cells was fixed with 4 v/v % PFA-containing PBS solution. […]
Next, the total number of immune cells and the number of primary cilia in an immune cell were obtained by using observations of cells contained in each sample. Then, the formation rate of a primary cilium in an immune cell was calculated in accordance with the formula (Ic): [Formation rate of primary cilium in immune cell]=[(Number of primary cilia in immune cell)/(Total number of immune cells)]×100 (Ic). […]

The values that follow come from US12306171B2, “Method for detecting indicator of immune-related disease” (MANDOM CORPORATION, priority 2018, dated 2025).

Molecules are shown by their SMILES.

On to `C[C@]12CCC(=O)C=C1CC[C@@H]1[C@@H]2[C@@H](O)C[C@@]2(C)[C@H]1CC[C@]2(O)C(=O)CO` [hydrocortisone], for which, in assay [1], the “presence of adhesive cell after culture (morphology, phase contrast microscope)” value is reported as “the adhesive cell disappears”. The “formation rate of a primary cilium of the immune cell in the nonadherent cell, versus control medium” value in assay [2] is “significantly lower”.
